Results on 2 compounds are retold here after patent publication US20170118998A1, “PESTICIDAL COMPOSITIONS AND METHODS FOR USING SAME” (priority 1998, published 2017).

Each structure is given as a SMILES string. A value given as a limit tells only on which side of the number the result lay.

Holding throughout (assay type): in vivo
The test system of assay [1] is American cockroaches. The assay can be described thus: Direct spray toxicity of rosemary oil, wintergreen oil and their blend (Example 1). To be noted: sprayed with approximately 3.7 grams; one value per insect. How it is done: Studies were conducted to evaluate the individual toxicity, in terms of speed of action and mortality, of rosemary oil and wintergreen oil against American cockroaches, and then a blend of these two oils to determine if similar toxic effects could be obtained using a proprietary blend that was less expensive to produce and easier to employ in different end-use formulations. Methyl salicylate was used as wintergreen oil. American cockroaches were confined under a screened cap and then sprayed with approximately 3.7 grams of each test chemical using a trigger sprayer. Immediately after spraying, the insects were released into a large plastic container and observed for signs of toxicity. Three American cockroaches were used in each experiment. The times for immobilization (IM), knockdown (KD), and mortality were recorded for each test insect. An untreated control was provided.

Assay [2] deals with American cockroaches. The assay can be described thus: Test chemical applied directly to thorax of insect using Pasteur Pipette (Table 12). The note with it: 1 drop applied directly to thorax; one value per insect.
The test system of assay [3] is Melon Aphids Aphis gossypii. The assay can be described thus: Melon Aphids on squash (Table 11). The note with it: 1 qt/acre, applied three times at one week interval. How it is done:
A formulation (DR-A-034) consisting of 5% w/w rosemary oil, 22.5% w/w wintergreen oil, 22.5% w/w mineral oil, 0.5% w/w lecithin (emulsifier), and 49.5% w/w water was prepared and labeled Hexacide™. Hexacide™ was applied in dilute form at different rates per acre to the pests itemized below in various greenhouse and field studies. In all of these studies, positive controls consisting of conventional pesticides were utilized for comparative efficacy.
Randomized complete block design was used. Five replicates per treatment were performed. 100 gallons spray volume per acre (GPA). Latron CS-7 at 4 ml/gallon was added to all treatments. All foliar applied pesticidal compositions applied, except Admire and Platinum (soil insecticides). HEXACIDE™ Azadiractin and Pyganic applied three times at one week interval. Other products applied once.

For `COC(=O)c1ccccc1O` [100% Methyl Salicylate, Methyl salicylate], in the assay on American cockroaches [1], the “IM (time for immobilization)” value stood at 45 s and the “Mortality (time)” value was above 2 min. At American cockroaches [2], the “KD (knockdown time)” value was “no KD” and the “Mortality (time)” value was above 5 m.

With `C/C=C(\C)C(=O)O[C@H]1C[C@@H](OC(C)=O)[C@@]2(C(=O)OC)CO[C@H]3[C@@H](O)[C@@](C)([C@]45O[C@@]4(C)[C@H]4C[C@@H]5O[C@@H]5OC=C[C@@]54O)[C@H]4[C@]1(CO[C@]4(O)C(=O)OC)[C@@H]32` [Azadiractin], the entries for the “Mean % Aphids per Leaf” value in assay [3] (6 DAT), in assay [3] (12 DAT) and in assay [3] (Pretreatment) were 5.4 c %, 15.1 c % and 3.9 b %, respectively.
